Measurements: US9834521B2, “Choline kinase inhibitors” (ARIAD Pharmaceuticals, Inc., priority 2013, dated 2017)
Like-named read-outs stand apart in the source and are kept apart here.

Assays:
[1] = target: T1, truncated form of human Choline kinase α1 that includes residues 75-457 (Homo sapiens, UniProt P35790); experiment: Kinase Assay, coupled (ATP regeneration) LDH/PK assay, NADH absorbance; format: biochemical
T1 construct: made in house
Method: Absorbance of NADH (340 nm) was measured over 30 min using a SpectraMax M5 (Molecular Devices). Initial reaction velocity (ΔA340/Δt) was calculated and plotted as a function of inhibitor concentration in a 2-fold dilution series. IC50 values were obtained by fitting the relative velocities to a dose-response model.

[2] = target: T2, ChoKα protein (Homo sapiens, UniProt P35790); experiment: Binding affinity by surface plasmon resonance (SensiQ Pioneer, FastStep)
T2 construct: made in house
T2 sequence (P35790 75-457): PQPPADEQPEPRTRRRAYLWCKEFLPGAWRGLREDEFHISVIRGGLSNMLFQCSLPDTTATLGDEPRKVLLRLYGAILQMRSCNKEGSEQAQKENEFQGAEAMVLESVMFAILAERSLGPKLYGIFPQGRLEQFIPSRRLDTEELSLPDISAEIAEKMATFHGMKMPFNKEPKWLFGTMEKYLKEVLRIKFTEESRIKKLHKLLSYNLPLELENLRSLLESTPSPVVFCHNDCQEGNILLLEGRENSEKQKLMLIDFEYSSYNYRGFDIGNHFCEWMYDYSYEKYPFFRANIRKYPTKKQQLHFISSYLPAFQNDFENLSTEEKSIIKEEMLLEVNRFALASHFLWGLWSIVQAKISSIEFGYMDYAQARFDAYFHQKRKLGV
Method: KD may be measured using surface plasmon resonance (BIAcore®) technology, see, e.g., Panayotou et al, Mol. Cell. […] ChoKα protein was immobilized by standard amine coupling methods on a COOH5 sensor chip installed in a SensiQ Pioneer system. Sensograms were measured using the FastStep™ screen method with an upper concentration of 500 nM. Kinetics and affinity were obtained from fits using a 1:1 binding model.

[3] = system: cancer cell lines; experiment: Cellular Growth Inhibition Assay (CyQuant Cell Proliferation Assay Kit); format: cell-based
Method: Cellular Growth Inhibition AssayVehicle or compound treated cells were assessed for cell growth after 72 hours of treatment using the CyQuant® Cell Proliferation Assay Kit (Life Technologies, Grand Island, N.Y.). […] Data are shown as mean (±SD) from ≧2 separate experiments.

[4] = system: phosphocholine levels in MDA-MB-415 cells; experiment: Phosphocholine Assay (1H-NMR) in MDA-MB-415 cells; format: cell-based; settings: Homo sapiens, 24 hours of treatment, read-out: IC50 of pCh
Method: (§1) 5×10^6 cells of each line were grown in the presence of increasing concentration of the test compound or vehicle (DMSO) for 24 hours, then counted and viability checked by Trypan Blue Exclusion protocol. 5×10^6 viable cells were washed twice in ice cold D-PBS, then solubilized by vortexing for 30 seconds in 6 mL ice cold 100% methanol. 6 mL of chloroform and 6 mL of water were added and the mixture vortexed again. After centrifugation for 10 minutes @ 5,220 rpms, 10 mL of the aqueous phase is removed and lyophilized. The samples were analyzed by ^1H-NMR to determine phosphocholine levels.
Dose dependent inhibition of phosphocholine levels in MDA-MB-415 cells by the compound provided in Example 55 was determined by ^1H-NMR analysis after 24 hours of treatment with increasing concentrations consisting of 0.25 μM, 0.50 μM, 1.0 μM, 2.0 μM, 4.0 μM, 8.0 μM and 16 μM.

[5] = system: phosphocholine levels in MDA-MB-468 cells; experiment: Phosphocholine Assay (1H-NMR) in MDA-MB-468 cells; format: cell-based; settings: Homo sapiens, 24 hours of treatment, read-out: IC50 of pCh
Method: as §1
Similarly, dose dependent inhibition of phosphocholine levels in MDA-MB-468 cells by the compound provided in Example 45 was determined by ^1H-NMR analysis after 24 hours of treatment with increasing concentrations consisting of 0.1 μM, 1.0 μM, 10 μM, 20 μM, and 80 μM. By this method, the IC50 of pCh was determined to be 3 μM of the compound provided in Example 45.

[6] = Examples not designated with an asterisk, footnote prints version 1 of the Kinase Assay, read-out: IC50
[7] = SPR, 1:1 binding model, upper concentration 500 nM, read-out: Kd
[8] = 72 hours of treatment, cell line not named, read-out: GI50

T1 sequence (P35790 75-457): as above

SMILES | IC50 [1] [nM] | Kd [2] [nM] | GI50 ([3]; 72 h) [nM] | IC50 [4] [nM] | IC50 [1, 6] [nM] | Kd [2, 7] [nM] | GI50 [3, 8] [nM] | IC50 [5] [nM]
CN1CCCN(Cc2ccc(-c3ccc(CN4CCCN(C)CC4)cc3C#N)c(F)c2)CC1 [Example 55, 2′-fluoro-4,4′-bis((4-methyl-1,4-diazepan-1-yl)methyl)-[1,1′-biphenyl]-2-carbonitrile] | < 200 | < 100 | < 5000 | 750 | – | – | – | –
CN1CCCN(Cc2ccc(-c3ccc(NS(C)(=O)=O)cc3)c(C#N)c2)CC1 [Example 104, N-(2′-cyano-4′-((4-methyl-1,4-diazepan-1-yl)methyl)-[1,1′-biphenyl]-4-yl)methanesulfonamide] | – | – | – | – | < 100 | < 50 | > 20000 | –
COc1ccc(-c2cc(C(=O)N3CCCN(C)CC3)ccc2-c2ccc(CN3CCCN(C)CC3)cc2C#N)cc1 [Example 66, 4″-methoxy-4-((4-methyl-1,4-diazepan-1-yl)methyl)-4′-(4-methyl-1,4-diazepane-1-carbonyl)-[1,1′:2′,1″-terphenyl]-2-carbonitrile] | – | – | – | – | < 100 | < 50 | < 20000 | –
CN1CCCN(Cc2ccc(-c3ccc(CN4CCC(O)CC4)cc3)c(C#N)c2)CC1 [Example 4, 4′-((4-hydroxypiperidin-1-yl)methyl)-4-((4-methyl-1,4-diazepan-1-yl)methyl)-[1,1′-biphenyl]-2-carbonitrile] | – | – | – | – | < 100 | < 50 | < 20000 | –
CN1CCCN(Cc2ccc(-c3cc(F)c(CN4CCCN(C)CC4)c(F)c3)cc2)CC1 [Example 40, 4,4′-((3,5-difluoro-[1,1′-biphenyl]-4,4′-diyl)bis(methylene))bis(1-methyl-1,4-diazepane)] | < 200 | < 60000 | < 20000 | – | – | – | – | –
CN1CCCN(Cc2ccc(-c3ccc(CN4CCCN(C)CC4)cc3C#N)cc2)CC1 [Example 14, 4,4′-bis((4-methyl-1,4-diazepan-1-yl)methyl)-[1,1′-biphenyl]-2-carbonitrile] | < 100 | < 50 | < 5000 | – | – | – | – | –
CN1CCCN(Cc2ccc(-c3ccc(CN4CCCN(C)CC4)cc3)cc2)CC1 [Example 45, 4,4′-bis((4-methyl-1,4-diazepan-1-yl)methyl)-1,1′-biphenyl] | < 200 | < 60000 | < 5000 | – | – | – | – | 3000
CN1CCCN(Cc2ccc(-c3ccc(C(=O)N4CCCN(C)CC4)cc3)c(C#N)c2)CC1 [Example 33, 4-((4-methyl-1,4-diazepan-1-yl)methyl)-4′-(4-methyl-1,4-diazepane-1-carbonyl)-[1,1′-biphenyl]-2-carbonitrile] | – | – | – | – | < 200 | < 200 | > 20000 | –
CN1CCCN(Cc2ccc(-c3ccc(CN4CCCN(C)CC4)c(F)c3F)cc2)CC1 [Example 41, 4,4′-((2,3-difluoro-[1,1′-biphenyl]-4,4′-diyl)bis(methylene))bis(1-methyl-1,4-diazepane)] | < 100 | < 100 | < 5000 | – | – | – | – | –
CN1CCCN(Cc2ccc(-c3ccc(C(=O)NC4CC4)cc3)c(C#N)c2)CC1 [Example 32, 2′-cyano-N-cyclopropyl-4′-((4-methyl-1,4-diazepan-1-yl)methyl)-[1,1′-biphenyl]-4-carboxamide] | – | – | – | – | < 200 | < 60000 | < 20000 | –
CN1CCCN(Cc2ccc(-c3ccc(CN4CCCN(C)CC4)c(Cl)c3)cc2)CC1 [Example 43, 4,4′-((3-chloro-[1,1′-biphenyl]-4,4′-diyl)bis(methylene))bis(1-methyl-1,4-diazepane)] | < 200 | < 200 | < 5000 | – | – | – | – | –
CN1CCCN(Cc2ccc(-c3ccc4[nH]ncc4c3)c(C#N)c2)CC1 [Example 92, 2-(1H-indazol-5-yl)-5-((4-methyl-1,4-diazepan-1-yl)methyl)benzonitrile] | – | – | – | – | < 100 | < 50 | > 20000 | –
CN1CCCN(Cc2ccc(-c3ccc(C(=O)N4CCCN(C)CC4)cc3)cc2)CC1 [Example 37, (4-methyl-1,4-diazepan-1-yl)(4′-((4-methyl-1,4-diazepan-1-yl)methyl)-[1,1′-biphenyl]-4-yl)methanone] | < 200 | < 200 | > 20000 | – | – | – | – | –
